Assay results taken from US7838685B2 (priority 2005, dated 2010).
Values joined by “and” are separate entries in the source; they are usually repeats but may differ in a detail not shown here. Equal values may be shown once.

Legend:
[1] = Phase transition temperature by differential scanning calorimeter; format: physicochemical; settings: for Tc, temperature of the gel to liquid-crystalline phase transition: dispersed in pure water, lipid concentration 1 wt %, DSC 2° C./min, 20 to 80° C.; for Transition temperature: comparison of cationic vesicles, hydrated at 10 mg/mL, extruded through 0.22 μm filter
Protocol: Each of the obtained cationic amino acid type lipids was dispersed in a simple medium of pure water at 60° C. and used as a measurement sample. 60 μL of a sample solution (lipid concentration: 1 wt %) was encapsulated in a silver pan (sealable type), and the phase transition temperature Tc was measured by a differential scanning calorimeter with the temperature elevation rate of 2° C./min. and the measurement temperature of 20 to 80° C.
(§1) Lys-Asp2C16 (5) was hydrated at a lipid concentration of 10 mg/mL and transmitted through a membrane filter having a final pore diameter of 0.22 μm by the extrusion method. Then, the phase transition temperature and the particle size of the assembly were measured. The particle size of the molecular assembly of Lys-Asp2C16 (5) measured by the dynamic light scattering method was 374±178 nm, and the phase transition temperature thereof was 30° C.

[2] = Zeta potential of the molecular assembly including a single type of cationic amino acid type lipid; format: physicochemical; settings: molecular assembly 1 mg/mL, extrusion method, 30 mM phosphoric buffer solution pH7.4
Protocol: The zeta potential of a molecular assembly (1 mg/mL) including a single type of cationic amino acid type lipid (2), (3) or (4) prepared by the extrusion method was measured by a zeta potentiometer (Nano-ZS, Malvern) with 30 mM of a phosphoric buffer solution at pH7.4. The zeta potential of each molecular assembly was +37 mV with the cationic amino acid type lipid (2), +45 mV with the cationic amino acid type lipid (3), and lower at +18 mV with the cationic amino acid type lipid (4). From such zeta potentials, it has been clarified that the surface of a molecular assembly formed of a cationic amino acid type lipid is charged positive under physiological conditions.

[3] = Particle size of the molecular assembly by dynamic light scattering method; format: physicochemical; settings: hydrate extruded through 0.22 μm membrane filter
Protocol: (§2) 10 mg of the cationic amino acid type lipid (2), (3) or (4) was hydrated in 2 mL of pure water and stirred at room temperature for 6 hours. Then, the resultant hydrate was transmitted with pressure through a membrane filter (final pore diameter: 0.22 μm) (extrusion method). […] After the transmission, the resultant substance was subjected to ultracentrifugation (33,000 rpm, 30 min.) and re-dispersed in pure water to obtain a molecular assembly including a respective cationic amino acid type lipid.
A hydrate dispersion solution of the cationic amino acid type lipid (2) was extruded and observed with an electron microscope. The particle size of the vesicles was approximately the same as the particle size thereof measured by a dynamic light scattering method (181±83 nm).
as §1

[4] = test system: simian kidney-derived cells COS-7; experiment: Cytotoxicity test, cell survival rate by WST assay, COS-7; format: cell-based; settings: COS-7, 10 μg added, 24 hours later
Protocol: (§3) The cationic amino acid type lipid (2) was evaluated in terms of cytotoxicity by adding different amounts thereof to cells. Specifically, 1×10^4 simian kidney-derived cells COS-7 or human fibroblasts CCD-32SK were planted to dishes and cultured for 24 hours in an incubator. To the cultured cells, a cationic liposome diluted with a medium was added so as to be 0.1, 1, 5, and 10 μg/dish. The cells were cultured for another 24 hours. Then, the cells were washed with a medium, and the cell survival rate was calculated by the WST assay. Based on the results, the cytotoxicity was evaluated (n=2). For comparison, the same test was performed using lipofectamine, which is currently in general use as a gene introduction drag. In the figure, (a) represents the results with COS-7, and (b) represents the results with CCD-32SK. Where 10 μg of lipofectamine was added to COS-7, the cell survival rate 24 hours later was 20%.

[5] = test system: human fibroblasts CCD-32SK; experiment: Cytotoxicity test, cell survival rate by WST assay, CCD-32SK; format: cell-based; settings: 24 h, 10 μg/dish
Protocol: as §3

[6] = Observation of the molecular assembly with transmission electron microscope; format: physicochemical; settings: for Form of molecular assembly observed with electron microscope: hydrate dispersion extruded
Protocol: as §2
The thickness of the ribbon is considered to be about 5 nm, which is approximately the same as the thickness of the bilayer.

| Tc, temperature of the gel to liquid-crystalline phase transition [1] | Transition temperature [1] | ξ potential [2] | Particle size (dynamic light scattering method) [3] | Form of molecular assembly observed with electron microscope ([6]; TEM) | SMILES | other results |
| --- | --- | --- | --- | --- | --- | --- |
| 49.4 °C |  |  |  |  | CCCCCCCCCCCCCCCCOC(=O)CCC(N)C(=O)OCCCCCCCCCCCCCCCC (centres unmarked) [Compound 1] |  |
| 41.2 °C | 41.2 °C | +37 mV | 181±83 nm and 188 ± 82 nm |  | CCCCCCCCCCCCCCCCOC(=O)CCC(NC(=O)C(N)CCCCN)C(=O)OCCCCCCCCCCCCCCCC (centres unmarked) [Compound 2] | Cell survival rate [4]: not decreased at all; Cell survival rate [5]: about 80% |
| 43.7 °C |  | +45 mV | 241±96 nm | tubular molecular assembly | CCCCCCCCCCCCCCCCOC(=O)CCC(NC(=O)C(N)Cc1c[nH]cn1)C(=O)OCCCCCCCCCCCCCCCC (centres unmarked) [Compound 3] | Diameter of tubular molecular assembly ([6]; electron microscope): about 20 nm; Wall thickness of the tube ([6]; electron microscope): about 5 nm |
| 44.8 °C |  | +18 mV | 1647±733 nm | monolayer vesicle structures | CCCCCCCCCCCCCCCCOC(=O)CCC(NC(=O)C(N)CCCNC(=N)N)C(=O)OCCCCCCCCCCCCCCCC (centres unmarked) [Compound 4] |  |
|  | 30.0 °C |  | 374 ± 178 nm | ribbon-like molecular assembly | CCCCCCCCCCCCCCCCOC(=O)CC(NC(=O)C(N)CCCCN)C(=O)OCCCCCCCCCCCCCCCC (centres unmarked) [Compound 5, Lys-Asp2C16, reference compound] | Transition temperature ([1]; listed as Lys-Asp2C16 (5)): 30 °C; Particle size (dynamic light scattering method) ([3]; listed as Lys-Asp2C16 (5)): 374±178 nm; Length of the ribbon ([6]; TEM): ≥ 1 μm; Thickness of the ribbon ([6]; TEM): about 5 nm; Width of the ribbon ([6]; TEM): about 100 nm; Stability of the form of the molecular assembly ([6]; after transmission through 0.22 μm membrane filter): unstable in the form |
